According to patent publication US20240226128A1, “NOVEL COMPOUNDS WITH DUAL INHIBITION ACTIVITY AGAINST SARS-COV-2 CRITICAL ENZYMES RDRP, MPRO AND HUMAN TMPRSS2” (priority 2022, published 2024):

Key:
[1] = tested on: SARS-CoV-2 (NRC-03-nhCoV strain); experiment: In vitro anti-SARS-CoV-2 activity of RH 1-23 compounds (Vero-E6 cells, crystal violet); assay type: cell-based
Experimental: The antiviral activity was carried out as previously described. Briefly, 96-well tissue culture plates were seeded with 2.4×10^4 Vero-E6 cells/and incubated overnight in Dulbecco's Modified Eagle's medium (DMEM) containing 10% Fetal Bovine Serum (FBS) and 1% penicillin/streptomycin antibiotic mixture at a humidified 37° C. incubator under 5% CO2. The cells were treated with SARS-CoV-2 (NRC-03-nhCoV strain, accession #EPI_ISL_430820) for viral adsorption, which was further overlaid with 50 μl DMEM containing varying concentrations of the tested compounds. Following incubation at 37° C. and 5% C02 for 72 h, the cells were fixed with 100 μl of 4% paraformaldehyde for 20 min and stained at room temperature with 0.1% crystal violet in distilled water for 15 min. The crystal violet dye was then dissolved in 100 μl methanol and the optical density of the obtained color was measured at 570 nm using Anthos Zenyth 200 rt plate reader (Anthos Labtec Instruments, Heerhugowaard, Netherlands).

[2] = tested on: SARS-CoV-2; conditions: comparator, FDA approved drug; cited from earlier work

Row | Structure (SMILES) | in vitro antiviral activity against SARS-CoV-2 [1] | in vitro antiviral activity against SARS-CoV-2 [2]
1 | CC(C)c1cc(=O)oc2ccc(OC(=O)c3ccc(NC(=N)N)cc3)cc12 [RH12, 4-guanidino-benzoic acid 4-isopropyl-2-oxo-2H-chromen-6-yl ester] | nM range | –
2 | N#C[C@@]1(c2ccc3c(NC(=O)c4ccc(NC(=N)N)cc4)ncnn23)O[C@H](CO)[C@@H](O)[C@H]1O [RH11, (2R,3R,4S,5R)-N-[7-(2-cyano-3,4-dihydroxy-5-hydroxymethyl-tetrahydro-furan-2-yl)-pyrrolo[2,1-f]-[1,2,4]-triazin-4-yl]-4-guanidino-benzamide] | nM range | –
3 | CC(C)C(=O)OC[C@H]1O[C@@H](n2ccc(NO)nc2=O)[C@H](O)[C@@H]1O [Molnupiravir] | – | μM range
